According to the supplement of paper PMC11451515:

What was measured:
Conditions in all cases: 48 h
NOMO1 [1] = assay: cell viability relative to DMSO control; higher = less cytotoxic
Procedure, shortened: (§1)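 Library compounds in DMSO were pin-dosed in an 11-point threefold series (47 μM to 0.79 nM) onto leukemia cells in 1536-well plates (5 μl). Plates held 500 cells/well of NOMO1 or SEM or 1000 cells/well of P12-Ichikawa, each adapted for at least four passages in each medium. Luminescence was read with CellTiter-Glo One after 48 h at 37°C. Viability means the per-plate percentage relative to DMSO wells, using cell-free wells as background.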

SEM cells [2] = assay: as above
Procedure, shortened: as §1

P12-Ichikawa [3] = assay: as above
Procedure, shortened: as §1

NOMO1 [4] = assay: AUC of viability dose-response curve (% viability x log10 dose units); higher = less sensitive
Procedure, shortened: (§2)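 In 1536-well plates, leukemia cells adapted to each medium (500 or 1000 cells/well) were exposed for 48 h at 37°C to library compounds in DMSO across 11 threefold doses, 47 μM down to 0.79 nM. Viability was read by CellTiter-Glo One luminescence and normalised per plate to DMSO and cell-free wells. A four-parameter log-logistic fit over log10 doses was integrated by trapezoidal rule. This yielded the area under the curve, with over-full-viability curves scaled and quality-control failures dropped.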

SEM cells [5] = assay: as above
Procedure, shortened: as §2

P12-Ichikawa [6] = assay: as above
Procedure, shortened: as §2

CCCCOc1ccc(CC(=O)NO)cc1
cell viability [%]
Conditions	NOMO1 [1]	P12-Ichikawa [3]	SEM cells [2]
HPLM + 10% dialyzed FBS, 0.000781 µM	122	108	107
HPLM + 10% dialyzed FBS, 0.00234 µM	124	108	115
HPLM + 10% dialyzed FBS, 0.00702 µM	114	108	105
HPLM + 10% dialyzed FBS, 0.0211 µM	121	110	125
HPLM + 10% dialyzed FBS, 0.0632 µM	101	111	101
HPLM + 10% dialyzed FBS, 0.19 µM	104	102	102
HPLM + 10% dialyzed FBS, 0.569 µM	104	102	109
HPLM + 10% dialyzed FBS, 1.71 µM	109	105	91.3
HPLM + 10% dialyzed FBS, 5.12 µM	107	107	101
HPLM + 10% dialyzed FBS, 15.4 µM	95.4	97.5	76.4
HPLM + 10% dialyzed FBS, 46.1 µM	85.3	67.7	51.8
RPMI 5 mM glucose + 10% FBS, 0.000781 µM	101	115	116
RPMI 5 mM glucose + 10% FBS, 0.00234 µM	110	115	99.5
RPMI 5 mM glucose + 10% FBS, 0.00702 µM	122	102	109
RPMI 5 mM glucose + 10% FBS, 0.0211 µM	99.3	116	116
RPMI 5 mM glucose + 10% FBS, 0.0632 µM	97.4	109	97
RPMI 5 mM glucose + 10% FBS, 0.19 µM	118	111	113
RPMI 5 mM glucose + 10% FBS, 0.569 µM	108	105	114
RPMI 5 mM glucose + 10% FBS, 1.71 µM	108	101	104
RPMI 5 mM glucose + 10% FBS, 5.12 µM	96.1	100	109
RPMI 5 mM glucose + 10% FBS, 15.4 µM	97.2	96.4	108
RPMI 5 mM glucose + 10% FBS, 46.1 µM	81.2	59.1	46.5
RPMI 5 mM glucose + 10% dialyzed FBS, 0.000781 µM	107	114	107
RPMI 5 mM glucose + 10% dialyzed FBS, 0.00234 µM	123	109	122
RPMI 5 mM glucose + 10% dialyzed FBS, 0.00702 µM	116	113	108
RPMI 5 mM glucose + 10% dialyzed FBS, 0.0211 µM	126	108	116
RPMI 5 mM glucose + 10% dialyzed FBS, 0.0632 µM	109	110	98.7
RPMI 5 mM glucose + 10% dialyzed FBS, 0.19 µM	111	104	115
RPMI 5 mM glucose + 10% dialyzed FBS, 0.569 µM	109	108	109
RPMI 5 mM glucose + 10% dialyzed FBS, 1.71 µM	103	106	113
RPMI 5 mM glucose + 10% dialyzed FBS, 5.12 µM	95	98.3	107
RPMI 5 mM glucose + 10% dialyzed FBS, 15.4 µM	94.7	92.4	102
RPMI 5 mM glucose + 10% dialyzed FBS, 46.1 µM	86.9	59.2	39.9

AUC of viability dose-response curve
Conditions	NOMO1 [4]	P12-Ichikawa [6]	SEM cells [5]
HPLM + 10% dialyzed FBS	417	464	440
RPMI 5 mM glucose + 10% FBS	459	457	463
RPMI 5 mM glucose + 10% dialyzed FBS	439	454	458

CCCNCC(O)COc1ccccc1C(=O)CCc1ccccc1 (stereo unspecified)
cell viability [%]
Conditions	NOMO1 [1]	P12-Ichikawa [3]	SEM cells [2]
HPLM + 10% dialyzed FBS, 0.000781 µM	82.6	101	86.5
HPLM + 10% dialyzed FBS, 0.00234 µM	117	98.9	86.5
HPLM + 10% dialyzed FBS, 0.00702 µM	113	107	117
HPLM + 10% dialyzed FBS, 0.0211 µM	106	103	93.3
HPLM + 10% dialyzed FBS, 0.0632 µM	121	111	98.7
HPLM + 10% dialyzed FBS, 0.19 µM	120	106	54.2
HPLM + 10% dialyzed FBS, 0.569 µM	123	114	105
HPLM + 10% dialyzed FBS, 1.71 µM	112	112	112
HPLM + 10% dialyzed FBS, 5.12 µM	124	118	117
HPLM + 10% dialyzed FBS, 15.4 µM	114	114	108
HPLM + 10% dialyzed FBS, 46.1 µM	96.9	115	99.6
RPMI 5 mM glucose + 10% FBS, 0.000781 µM	23.6	112	98.8
RPMI 5 mM glucose + 10% FBS, 0.00234 µM	106	105	95.1
RPMI 5 mM glucose + 10% FBS, 0.00702 µM	106	110	98.1
RPMI 5 mM glucose + 10% FBS, 0.0211 µM	117	116	104
RPMI 5 mM glucose + 10% FBS, 0.0632 µM	111	114	107
RPMI 5 mM glucose + 10% FBS, 0.19 µM	109	108	60.4
RPMI 5 mM glucose + 10% FBS, 0.569 µM	111	113	125
RPMI 5 mM glucose + 10% FBS, 1.71 µM	122	115	109
RPMI 5 mM glucose + 10% FBS, 5.12 µM	124	123	124
RPMI 5 mM glucose + 10% FBS, 15.4 µM	111	128	116
RPMI 5 mM glucose + 10% FBS, 46.1 µM	107	110	97.2
RPMI 5 mM glucose + 10% dialyzed FBS, 0.000781 µM	108	93.4	101
RPMI 5 mM glucose + 10% dialyzed FBS, 0.00234 µM	98.5	103	85.1
RPMI 5 mM glucose + 10% dialyzed FBS, 0.00702 µM	124	98.1	109
RPMI 5 mM glucose + 10% dialyzed FBS, 0.0211 µM	122	103	90.5
RPMI 5 mM glucose + 10% dialyzed FBS, 0.0632 µM	124	102	102
RPMI 5 mM glucose + 10% dialyzed FBS, 0.19 µM	111	113	43.6
RPMI 5 mM glucose + 10% dialyzed FBS, 0.569 µM	111	114	118
RPMI 5 mM glucose + 10% dialyzed FBS, 1.71 µM	121	113	104
RPMI 5 mM glucose + 10% dialyzed FBS, 5.12 µM	118	112	116
RPMI 5 mM glucose + 10% dialyzed FBS, 15.4 µM	119	106	115
RPMI 5 mM glucose + 10% dialyzed FBS, 46.1 µM	103	98.4	110

AUC of viability dose-response curve
Conditions	NOMO1 [4]	P12-Ichikawa [6]	SEM cells [5]
HPLM + 10% dialyzed FBS	457	450	438
RPMI 5 mM glucose + 10% FBS	391	452	444
RPMI 5 mM glucose + 10% dialyzed FBS	473	458	432
